Series [1] can be described thus: Toxicokinetic assessment of systemic exposure in minipigs following dermal administration. Particulars: Göttingen, minipig, plasma, topical or ocular; for AUC(0-t): read-out: AUC0-24; for Tmax: Median (Min-Max). Format: in vivo. On the procedure:
Male and female göttingen minipigs were dosed daily for a period of 28 days in a GLP toxicity study with DMVT-503 gel at 0.1%, 0.3%, and 0.6%. DMVT-503 concentrations were quantitated using a validated LC-MS/MS method and toxicokinetic parameters were calculated for all dosing groups, sexes, and sampling occasions. The systemic exposures observed in this study are supportive of the effective delivery of DMVT-503 into and through minipig skin by the gel formulations tested. Table 10 presents the summary as mean±SD on Days 1 and 28 following daily dermal application of DMVT-503 gel formulations at 0.1%, 0.3%, and 0.6% (2, 6, and 12 mg/kg/day, respectively).

The test system of series [2] is Human immortalized sebocytes. Description: 14C-Acetate Sebocyte Lipid Accumulation Assay. Format: cell-based. Particulars: day 2, 16 hour treatment with 1 μM T0901317, then 1 μM insulin for 4 hours. On the procedure: This assay examines the ability of compounds to modulate the incorporation of label into de novo lipid synthesis. Cells were seeded in collagen 1-coated Scintiplates. Compounds were added in the presence of Liver X Receptor (LXR) agonist (T0901317) overnight. The medium was replaced with treatments and stimulated with 1 μM insulin for 4 hours in Labeling Medium containing 14C-acetate. Label incorporation was determined by washing the cells to removed excess label and allowing the cell layer to air dry before assessing labeling through Scintiplate counting normalized to Cell Titer Blue viability reagent.
Protocol—Day 1: Human immortalized sebocytes were seeded at 10,000 cells/well in a 96-well white, clear bottom collagen 1-coated Scintiplate in Sebocyte Growth Medium and allowed to attach overnight at 37° C. Day 2: Medium was refreshed by removing seeding medium and adding fresh Sebocyte Growth Medium. […] 3) Plates were read at Ex. 560 Em.590 with a cutoff of 570 nm for CTB signal. […] 5) 14C-acetate labeling was determined by scintillation counting in a MicroBeta TriLux Scintillation Counter.
Data analysis—Cell viability is presented as cell titer blue fluorescence reading (RFU) for each treatment. […] The percent of LXR agonist+Insulin-stimulated lipogenesis was calculated by taking the ratio of each CPM measure over the corresponding cell titer blue measure. […]

Setting [3] is: female, 2 mg/kg/day, Day 1, Female, 2 mg/kg/day, 0.1% gel.
The mark [4] stands for this setting: female, 2 mg/kg/day, Day 28, Female, 2 mg/kg/day, 0.1% gel.
Setting [5] is: female, 6 mg/kg/day, Day 1, Female, 6 mg/kg/day, 0.3% gel.
[6] abbreviates: female, 6 mg/kg/day, Day 28, Female, 6 mg/kg/day, 0.3% gel.
[7] abbreviates: female, 12 mg/kg/day, Day 1, Female, 12 mg/kg/day, 0.6% gel.
Setting [8] is: female, 12 mg/kg/day, Day 28, Female, 12 mg/kg/day, 0.6% gel.
Where [9] appears, read: male, 2 mg/kg/day, Day 1, Male, 2 mg/kg/day, 0.1% gel.
Setting [10] is: male, 2 mg/kg/day, Day 28, Male, 2 mg/kg/day, 0.1% gel.
Where [11] appears, read: male, 6 mg/kg/day, Day 1, Male, 6 mg/kg/day, 0.3% gel.
Where [12] appears, read: male, 6 mg/kg/day, Day 28, Male, 6 mg/kg/day, 0.3% gel.
The mark [13] stands for this setting: male, 12 mg/kg/day, Day 1, Male, 12 mg/kg/day, 0.6% gel.
[14] abbreviates: male, 12 mg/kg/day, Day 28, Male, 12 mg/kg/day, 0.6% gel.

pIC50: −log10 of the molar value. Like-named read-outs stand apart in the source and are kept apart here.

Results on two molecules are retold here after patent US20210260055A1, “TOPICAL FORMULATIONS OF DGAT1 INHIBITORS AND THEIR METHODS OF USE” (Dermavant Sciences GmbH, priority 2018, published 2021).

On to `Cc1nc(C)c(-c2ccc([C@H]3CC[C@H](CC(=O)O)CC3)cc2)nc1C(N)=O` [DMVT-503, 2-((1R,4R)-4-(4-(6-carbamoyl-3,5-dimethylpyrazin-2-yl)phenyl)cyclohexyl)acetic acid], for which the maximum concentration (Cmax) came to 37.3 ng/mL in series [1] (setting [3]); 193 ng/mL in series [1] (setting [4]); 210 ng/mL in series [1] (setting [5]); 487 ng/mL in series [1] (setting [6]); 171 ng/mL in series [1] (setting [7]); 1370 ng/mL in series [1] (setting [8]). The Cmax in series [1] (setting [9]) was determined as 35.1 ng/mL; in series [1] (setting [10]), 19.6 ng/mL; in series [1] (setting [11]), 53 ng/mL; in series [1] (setting [12]) it was 940 ng/mL; in series [1] (setting [13]), 103 ng/mL; in series [1] (setting [14]), 1160 ng/mL. Besides, the AUC(0-t) in series [1] (setting [3]) was 323 ng·h/mL; in series [1] (setting [4]), 3940 ng·h/mL; in series [1] (setting [5]), 1750 ng·h/mL; in series [1] (setting [6]), 8660 ng·h/mL; in series [1] (setting [7]) it was 1490 ng·h/mL; in series [1] (setting [8]), 25400 ng·h/mL. The AUC(0-t) in series [1] (setting [9]) amounted to 307 ng·h/mL; in series [1] (setting [10]), 3970 ng·h/mL; in series [1] (setting [11]), 478 ng·h/mL; in series [1] (setting [12]) it was 17500 ng·h/mL; in series [1] (setting [13]), 10500 ng·h/mL; in series [1] (setting [14]) it was 22300 ng·h/mL. Further, the time to peak (Tmax) in series [1] (setting [3]) was determined as 24 h; in series [1] (setting [4]), 1 h; in series [1] (setting [5]), 24 h; in series [1] (setting [6]), 0 h; in series [1] (setting [7]), 24 h; in series [1] (setting [8]), 0 h. Besides, the time of peak concentration (Tmax) in series [1] (setting [9]) worked out at 24 h; in series [1] (setting [10]), 0 h; in series [1] (setting [11]), 24 h; in series [1] (setting [12]) it was 2 h; in series [1] (setting [13]) it was 24 h; in series [1] (setting [14]), 1 h. The molecule also gave a negative-log IC50 (pIC50) in series [2] (Homo sapiens) of 7.30.

As to `CC1=C(/C=C/C(C)=C/C=C/C(C)=C\C(=O)O)C(C)(C)CCC1` [Mix 13-cis-RA, 13-cis-retinoic Acid, reference compound], in series [2], the pIC50 is 6.48.
